Numbering of substitutions follows the chain as printed.
Columns and labels:
[1] = target: T1, C656S mutant glucocorticoid receptor (Rattus norvegicus, UniProt P06536, C656S/D98G); assay: Competition binding assay with [3H]Dex, COS-7 cytosol, C656S receptor; conditions: for reduction in relative affinity on replacement of Cys-656 with serine: C656S vs wild type, 2.5 hr incubation
T1 construct: Thus the full length receptor was removed from the VARO vector with BamHI and inserted into the SVL vector; expressed in transfected cells; host or cells: COS-7 (cytosol)
T1 sequence (P06536 1-795 D98G/C656S): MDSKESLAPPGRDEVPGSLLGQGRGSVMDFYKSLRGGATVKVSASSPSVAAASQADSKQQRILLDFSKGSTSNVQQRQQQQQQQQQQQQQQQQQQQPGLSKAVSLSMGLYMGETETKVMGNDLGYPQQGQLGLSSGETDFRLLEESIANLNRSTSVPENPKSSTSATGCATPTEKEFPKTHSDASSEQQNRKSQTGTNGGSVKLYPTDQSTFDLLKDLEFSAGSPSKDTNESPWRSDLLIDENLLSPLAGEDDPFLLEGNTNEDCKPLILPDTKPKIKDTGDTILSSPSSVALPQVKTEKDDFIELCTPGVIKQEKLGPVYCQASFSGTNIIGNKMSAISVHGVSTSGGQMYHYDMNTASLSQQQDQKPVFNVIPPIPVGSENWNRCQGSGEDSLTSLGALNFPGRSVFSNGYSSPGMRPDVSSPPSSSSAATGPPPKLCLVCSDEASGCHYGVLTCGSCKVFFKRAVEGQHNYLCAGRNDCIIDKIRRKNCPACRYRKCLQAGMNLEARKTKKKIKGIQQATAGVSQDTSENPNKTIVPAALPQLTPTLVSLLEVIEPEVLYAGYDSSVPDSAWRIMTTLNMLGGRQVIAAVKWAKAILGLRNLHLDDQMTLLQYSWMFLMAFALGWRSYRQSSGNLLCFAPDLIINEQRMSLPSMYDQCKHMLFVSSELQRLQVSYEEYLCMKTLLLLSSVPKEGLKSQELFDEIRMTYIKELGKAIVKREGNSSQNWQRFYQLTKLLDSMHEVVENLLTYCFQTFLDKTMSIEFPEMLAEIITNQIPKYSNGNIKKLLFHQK
Description: (§1) Monolayer cultures of COS-7 cells were grown in DMEM (Gibco) supplemented with 5% fetal bovine serum (FBS) (Biofluids) at 37° C. in a 5% CO2 incubator. Standard calcium phosphate transfection methods were used to introduce the wild type and mutant receptor expression vectors (pSVL) into COS-7 cells (100 mm plates [Costar] at a cell density of about 10^6 /plate were each treated with 10 μg of plasmid DNA). After ~16 hrs of incubation at 37° C. in a 5% CO2 incubator, the excess calcium phosphate and precipitate were removed by washing with phosphate buffered saline (PBS). The cells were incubated at 37° C. for another ~48 hr in DMEM/ 5% FBS and harvested by trypsinization followed by centrifugation (for 10 min at 1570 ×g) and washing 3 times with PBS. The washed cells were stored at -80° C. until used.
(§2) Briefly, 30% cytosol solutions containing ~21 mM Na2 MoO4 were prepared with three parts COS-7 cell cytosol, 2 parts pH 9.5 TAPS buffer, and 5 parts pH 8.8 TAPS buffer. The total EtOH in each experiment was kept constant and at a level of ≤1%. […] After incubation for 2.5 hr, the [^3 H]Dex-Mes-labeled solutions were quick-frozen at -78° C. for subsequent SDS-polyacrylamide gel electrophoresis analysis. The specifically bound [^3 H]Dex was determined by first adding a 10% dextran-coated charcoal solution (added volume =20% of reaction solution volume) to remove free steroid and then subtracting the nonspecific binding seen in the presence of excess nonradioactive Dex.
(§3) The average specific binding was determined after 2.5 or 24 hr of incubation as described above, expressed as percentage of the non-competed control and plotted versus the log10 of the concentration of the competing steroid.
(§4) The initial data were collected from 2.5 hr binding assays because of concerns about the stability of the receptors over longer times.

[2] = target: T2, C661S mutant glucocorticoid receptor (Rattus norvegicus, UniProt P06536, C661S/D98G); assay: Competition binding assay with [3H]Dex, COS-7 cytosol, C661S receptor; conditions: for decrease in relative affinity on mutation of Cys-661: C661S vs wild type, 2.5 hr incubation
T2 construct: Thus the full length receptor was removed from the VARO vector with BamHI and inserted into the SVL vector; expressed in transfected cells; host or cells: COS-7 (cytosol)
T2 sequence (P06536 1-795 D98G/C661S): T1 sequence (P06536 1-795 D98G/C656S) with S656C, C661S
Description: as §1, §2, §3, §4

Row | Structure (SMILES) | Relative Ka of Steroid Binding to Receptor [1] | reduction in relative affinity on replacement of Cys-656 with serine [1] [fold] | Relative Ka of Steroid Binding to Receptor [2] | decrease in relative affinity on mutation of Cys-661 [2] | effect of mutation of Cys-661 on binding [2]
1 | C[C@]12CC[C@@H]3c4ccc(O)cc4CC[C@H]3[C@@H]1CC[C@@H]2O [17β-Estradiol, 17β-estradiol] | 0.0015 | ≥ 10 | 0.0017 ± 0.0006 | approximately 10 fold | 
2 | C[C@]12CCC(=O)C=C1CC[C@@H]1[C@@H]2[C@@H](O)C[C@]2(C=O)[C@@H](C(=O)CO)CC[C@@H]12 [Aldosterone, aldosterone] | 0.068 | ≤ 3 | 0.016 ± 0.007 | approximately 10 fold | 
3 | CC#C[C@]1(O)CC[C@H]2[C@@H]3CCC4=CC(=O)CCC4=C3[C@@H](c3ccc(N(C)C)cc3)C[C@@]21C [RU486] | 3.4 |  | 3.84 ± 1.36 |  | little effect
